In ChEMBL document CHEMBL4818988, “Structure-Activity Relationships for the Marine Natural Product Sintokamides: Androgen Receptor N-Terminus Antagonists of Interest for Treatment of Metastatic Castration-Resistant Prostate Cancer” (J Nat Prod, 2021) one finds Activity and IC50 data, which are given here for eight compounds.

Each structure is given as a SMILES string. Calls of active or inactive are those of the source. No cut-off for these calls is given here. A value given as a limit tells only on which side of the number the result lay.

In experiment [1] the target is T1, Androgen receptor (Homo sapiens) (UniProt P10275).
T1 sequence (whole entry): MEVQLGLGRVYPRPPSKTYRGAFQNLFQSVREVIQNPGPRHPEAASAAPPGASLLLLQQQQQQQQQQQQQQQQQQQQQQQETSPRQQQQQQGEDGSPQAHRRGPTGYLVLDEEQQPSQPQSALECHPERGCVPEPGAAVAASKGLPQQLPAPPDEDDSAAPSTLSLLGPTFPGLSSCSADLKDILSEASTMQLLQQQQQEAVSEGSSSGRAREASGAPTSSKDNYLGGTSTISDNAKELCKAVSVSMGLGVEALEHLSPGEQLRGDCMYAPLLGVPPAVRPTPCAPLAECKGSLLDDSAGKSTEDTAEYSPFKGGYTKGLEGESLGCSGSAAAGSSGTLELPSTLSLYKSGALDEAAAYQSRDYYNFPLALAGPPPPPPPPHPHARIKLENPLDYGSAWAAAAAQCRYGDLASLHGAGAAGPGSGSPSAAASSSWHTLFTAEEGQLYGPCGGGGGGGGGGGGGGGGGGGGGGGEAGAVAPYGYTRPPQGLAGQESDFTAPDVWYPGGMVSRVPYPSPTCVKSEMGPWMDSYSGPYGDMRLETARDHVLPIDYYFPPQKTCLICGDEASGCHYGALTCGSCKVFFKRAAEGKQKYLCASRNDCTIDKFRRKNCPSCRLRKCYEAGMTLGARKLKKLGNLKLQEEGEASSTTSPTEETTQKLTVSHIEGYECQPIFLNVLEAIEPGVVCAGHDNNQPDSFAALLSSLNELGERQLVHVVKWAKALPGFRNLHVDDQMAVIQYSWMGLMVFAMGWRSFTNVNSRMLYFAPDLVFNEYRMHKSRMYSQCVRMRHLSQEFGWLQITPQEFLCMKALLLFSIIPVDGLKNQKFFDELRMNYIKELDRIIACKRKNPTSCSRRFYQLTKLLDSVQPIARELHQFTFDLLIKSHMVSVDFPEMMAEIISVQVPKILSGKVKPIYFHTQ
Briefly: Antagonist activity at AR in human LNCaP cells transfected with PSA assessed as inhibition of R1881-induced PSA luciferase activity pretreated with compound followed by R1881 addition at 5 uM and measured after 48 hrs by luciferase assay. In kind it is cell-based.

For experiment [2], the target named is T1, Androgen receptor (Homo sapiens). Briefly: Antagonist activity at AR in human LNCaP cells transfected with PSA assessed as inhibition of R1881-induced PSA luciferase activity pretreated with compound followed by R1881 addition at 35 uM and measured after 48 hrs by luciferase assay. In kind it is cell-based.
Experiment [3] has the same target. Briefly: Antagonist activity at AR in human LNCaP cells transfected with PSA assessed as inhibition of R1881-induced PSA luciferase activity pretreated with compound followed by R1881 addition at 15 uM and measured after 48 hrs by luciferase assay. It is filed as cell-based.
For experiment [4] the target is unchanged. Briefly: Antagonist activity at AR in human LNCaP cells transfected with PSA assessed as inhibition of R1881-induced PSA luciferase activity pretreated with compound followed by R1881 addition at 10 uM and measured after 48 hrs by luciferase assay. In kind it is cell-based.
The target is the same in experiment [5]. Nature of the experiment: Antagonist activity at AR in human LNCaP cells transfected with PSA assessed as inhibition of R1881-induced PSA luciferase activity pretreated with compound followed by R1881 addition at 25 uM and measured after 48 hrs by luciferase assay. In kind it is cell-based.
Experiment [6] shares this target. Briefly: Antagonist activity at AR in human LNCaP cells transfected with PSA assessed as inhibition of R1881-induced PSA luciferase activity pretreated with compound followed by R1881 addition at 50 uM and measured after 48 hrs by luciferase assay. It is filed as cell-based.
Experiment [7] has the same target. Briefly: (§1) Antagonist activity at AR in human LNCaP cells transfected with PSA assessed as inhibition of R1881-induced PSA luciferase activity pretreated with compound followed by R1881 addition and measured after 48 hrs by luciferase assay. In kind it is cell-based. The conditions noted are these: filed as antagonist.
Experiment [8] relates to DU-145. Briefly: Cytotoxicity against human DU145 cells assessed as reduction in cell viability after 72 hrs by Alamar blue assay. In kind it is functional, cell-based. The conditions noted are these: DU-145, 72 h. On the technique in general: The colour change of resazurin is a common sign of viable cells or microbes.
In experiment [9] the target is T2, Androgen receptor (Homo sapiens, UniProt P10275).
T2 sequence (P10275 whole entry): T1 sequence (whole entry)
Described as §1. It is filed as cell-based.

The subject of experiment [10] is PC-3. Nature of the experiment: Cytotoxicity against human PC3 cells assessed as reduction in cell viability after 72 hrs by Alamar blue assay. In kind it is functional, cell-based. The conditions noted are these: PC-3, 72 h.

Take `CCC(=O)N[C@H](CC(C)C)C(=O)N1C(=O)C=C(OC)[C@@H]1CC(C)C`: the result in experiment [1], in experiment [2] and in experiment [3] was inactive.
As for `CCC(=O)N[C@H](C[C@H](C)C(Cl)(Cl)Cl)C(=O)N1C(=O)C=C(OC)[C@@H]1C[C@H](C)C(Cl)(Cl)Cl`, the outcome in experiment [1] (filed as antagonist) and in [4] (filed as antagonist) was Active.
`CCC(=O)N[C@H](CCCCl)C(=O)N1C(=O)C=C(OC)[C@@H]1CCCCl`: the result in [5], in experiment [6] and in experiment [4] was inactive.
For the compound `CCC(=O)N[C@H](CCC(Cl)Cl)C(=O)N1C(=O)C=C(OC)[C@H]1CCC(Cl)Cl`, in experiment [7], the Activity entry was “Dose-Dependent Effect”.
As to `CCC(=O)N[C@H](C[C@H](C)C(Cl)(Cl)Cl)C(=O)N1C(=O)C=C(OC)[C@@H]1C[C@H](C)C(Cl)Cl`, the IC50 in [8] is more than 35 µM; in [9], 6.5 µM; in [10] it was 29 µM. For the same compound, the outcome in [1] (filed as antagonist) and in experiment [4] (filed as antagonist) was Active.
As to `CCC(=O)N[C@H](CCC(Cl)(Cl)Cl)C(=O)N1C(=O)C=C(OC)[C@H]1CCC(Cl)(Cl)Cl`, in experiment [7], the Activity entry was “Dose-Dependent Effect”.
In the case of `CCC(=O)N[C@H](CCC(Cl)(Cl)Cl)C(=O)N1C(=O)C=C(OC)[C@@H]1CCC(Cl)(Cl)Cl`, the Activity result in experiment [7] is “Dose-Dependent Effect”.
As to `CCC(=O)N[C@H](CCC(Cl)Cl)C(=O)N1C(=O)C=C(OC)[C@@H]1CCC(Cl)Cl`, in [7], the Activity result is “Dose-Dependent Effect”.

The IC50 is the concentration that gives 50% inhibition.
